Measured values taken from patent publication US20130310256A1, “HERBICIDAL COMPOSITIONS COMPRISING 4-AMINO-3-CHLORO-5-FLUORO-6-(4-CHLORO-2-FLUORO-3-METHOXYPHENYL) PYRIDINE-2-CARBOXYLIC ACID OR A DERIVATIVE THEREOF AND VLCFA AND LIPID SYNTHESIS INHIBITING HERBICIDES” (DOW AGROSCIENCES LLC, priority 2008, published 2013).

Legend:
SINAR = experiment: Example III: post-emergence foliar-applied weed control in cereal crops, greenhouse; format: in vivo, Sinapis arvensis L.; conditions: 21 DAA
Description: (§1) Seeds of the desired test plant species were planted in Sun Gro MetroMix® 306 planting mixture, which typically has a pH of 6.0 to 6.8 and an organic matter content of about 30 percent, in plastic pots with a surface area of 103.2 square centimeters (cm^2). When required to ensure good germination and healthy plants, a fungicide treatment and/or other chemical or physical treatment was applied. The plants were grown for 7-36 days in a greenhouse with an approximate 14 hour photoperiod which was maintained at about 18° C. during the day and 17° C. during the night. Nutrients and water were added on a regular basis and supplemental lighting was provided with overhead metal halide 1000-Watt lamps as necessary. The plants were employed for testing when they reached the second or third true leaf stage.
(§2) Treatments consisted of the benzyl ester of 4-amino-3-chloro-5-fluoro-6-(4-chloro-2-fluoro-3-methoxy-phenyl)pyridine-2-carboxylic acid (Compound A), formulated as an SC (suspension concentrate), and a second cereal herbicide alone and in combination.
(§3) Measured aliquots of the benzyl ester of 4-amino-3-chloro-5-fluoro-6-(4-chloro-2-fluoro-3-methoxy-phenyl)pyridine-2-carboxylic acid (Compound A) were placed in 25 milliliter (mL) glass vials and diluted in a volume of 1.25% (v/v) Agri-dex crop oil concentrated to obtain stock solutions. Compound requirements are based upon a 12 mL application volume at a rate of 187 liters per hectare (L/ha). Spray solutions of the second cereal herbicide and experimental compound mixtures were prepared by adding the stock solutions to the appropriate amount of dilution solution to form 12 mL spray solution with active ingredients in two- and three-way combinations. Formulated compounds were applied to the plant material with an overhead Mandel track sprayer equipped with an 8002E nozzle calibrated to deliver 187 L/ha over an application area of 0.503 square meters (m^2) at a spray height of 18 inches (46 cm) above average plant canopy. Control plants were sprayed in the same manner with the solvent blank.
(§4) The treated plants and control plants were placed in a greenhouse as described above and watered by sub-irrigation to prevent wash-off of the test compounds. After 20-22 days, the condition of the test plants as compared with that of the control plants was determined visually and scored on a scale of 0 to 100 percent where 0 corresponds to no injury and 100 corresponds to complete kill.
(§5) Colby's equation was used to determine the herbicidal effects expected from the mixtures (Colby, S. R. 1967. Calculation of the synergistic and antagonistic response of herbicide combinations. Weeds 15:20-22.).

GALAP = experiment: as above; format: in vivo, Galium aparine L.; conditions: 21 DAA
Description: as §1, §2, §3, §4, §5

CYPES = experiment: Example I: postemergence foliar-applied weed control, greenhouse; format: in vivo, Cyperus esculentus L. (yellow nutsedge)
KCHSC = experiment: Example III: post-emergence foliar-applied weed control in cereal crops, greenhouse; format: in vivo, Kochia scoparia (L.) Schrad.; conditions: 21 DAA
Description: as §1, §2, §3, §4, §5

CIRAR = experiment: as above; format: in vivo, Cirsium arvense (L.) Scop.; conditions: 21 DAA
Description: as §1, §2, §3, §4, §5

ISCRU = experiment: Example I: postemergence foliar-applied weed control, greenhouse; format: in vivo, Ischaemum rugosum Salisb. (saramollagrass); conditions: 21 DAA
Excerpt: Seeds or nutlets of the desired test plant species were planted in a soil matrix prepared by mixing a loam or sandy loam soil (e.g., 28.6 percent silt, 18.8 percent clay, and 52.6 percent sand, with a pH of about 5.8 and an organic matter content of about 1.8 percent) and calcareous grit in an 80 to 20 ratio. The soil matrix was contained in plastic pots with a volume of 1 quart and a surface area of 83.6 square centimeters (cm^2). When required to ensure good germination and healthy plants, a fungicide treatment and/or other chemical or physical treatment was applied. The plants were grown for 8-22 days in a greenhouse with an approximate 14 hr photoperiod which was maintained at about 29° C. during the day and 26° C. during the night. Nutrients (Peters Excel® 15-5-15 5-Ca 2-Mg and iron chelate) were applied in the irrigation solution as needed and water was added on a regular basis. Supplemental lighting was provided with overhead metal halide 1000-Watt lamps as necessary. The plants were employed for testing when they reached the first through fourth true leaf stage.
Treatments consisted of the acid or esters of 4-amino-3-chloro-5-fluoro-6-(4-chloro-2-fluoro-3-methoxy-phenyl)pyridine-2-carboxylic acid (Compound A), each formulated as an SC (suspension concentrate), and various herbicidal components alone and in combination. Forms of compound A were applied on an acid equivalent basis.
Other herbicidal components were applied on an active ingredient basis and included very long chain fatty acid (VLCFA) synthesis-inhibiting and fatty acid/lipid synthesis-inhibiting herbicides acetochlor (technical grade material), acetochlor+dichlormid formulated as Topnotch®, pretilachlor (technical grade material), butachlor formulated as Butachlor EC, fentrazamide formulated as Fentrazamide EC, thiobencarb formulated as Bolero® 8EC, cafenstrole formulated as Himeadow® WP or Lapost® Flowable, benfuresate formulated as Full Shot®, dimethenamid-P formulated as Outlook®, indanofan (technical grade material), flufenacet formulated as Define® DF, mefenacet (technical grade material), S-metolachlor formulated as Dual® II Magnum, pethoxamid formulated as Successor® 600, and pyroxasulfone (technical grade material).
Treatment requirements were calculated based upon the rates being tested, the concentration of active ingredient or acid equivalent in the formulation, and a 12 mL application volume at a rate of 187 L/ha.
For treatments comprised of formulated compounds, measured amounts of compounds were placed individually in 25 mL glass vials and diluted in a volume of 1.25% (v/v) Agri-Dex® crop oil concentrated to obtain 12× stock solutions. […]

COc1c(Cl)ccc(-c2nc(C(=O)OCc3ccccc3)c(Cl)c(N)c2F)c1F [Compound A Benzyl Ester, benzyl ester of 4-amino-3-chloro-5-fluoro-6-(4-chloro-2-fluoro-3-methoxy-phenyl)pyridine-2-carboxylic acid]
Visual Weed Control SINAR Obs (SINAR; 2.5 gai/ha): 70%
Visual Weed Control SINAR Obs (SINAR; 5 gai/ha): 73%
Visual Weed Control GALAP Obs (GALAP; 2.5 gai/ha): 55%
Visual Weed Control GALAP Obs (GALAP; 5 gai/ha): 66%
Visual Weed Control GALAP Obs (GALAP; 10 gai/ha): 77%
Visual Weed Control (%) - 20 DAA CYPES Obs (CYPES; 8 gae/ha): 0%
Visual Weed Control (%) - 21 DAA CYPES Obs (CYPES; 8 gae/ha): 85%
Visual Weed Control (%) - 20 DAA CYPES Obs (CYPES; 16 gae/ha): 75%
Visual Weed Control KCHSC Obs (KCHSC; 2.5 gai/ha): 20%
Visual Weed Control KCHSC Obs (KCHSC; 5 gai/ha): 41%
Visual Weed Control KCHSC Obs (KCHSC; 10 gai/ha): 62%
Visual Weed Control CIRAR Obs (CIRAR; 2.5 gai/ha): 48%
Visual Weed Control CIRAR Obs (CIRAR; 5 gai/ha): 39%
Visual Weed Control CIRAR Obs (CIRAR; 10 gai/ha): 60%
Visual Weed Control Obs (ISCRU; 8 gae/ha): 20%
Visual Weed Control Obs (ISCRU; 16 gae/ha): 0%
